Source: US12624017B2, “Salt form of isoquinolinone type compound as rock inhibitor and preparation method therefor” (GUANGZHOU OCUSUN OPHTHALMIC BIOTECHNOLOGY CO., LTD., priority 2020, dated 2026)

Tests used:
[1] = system: New Zealand rabbits with normal intraocular pressure; assay: Intraocular pressure reduction, normal intraocular pressure, eye drops in both eyes for 14 days (Operation I); assay type: in vivo, New Zealand white rabbits; conditions: for Change in intraocular pressure: vs negative control
Text: An intraocular pressure reduction effect and potential ocular toxicity of the compound of formula (I) were inspected with rabbits with normal intraocular pressure by repeated administration of eye drops for 14 days.
Male New Zealand white rabbits, aged 97 to 127 days, weighted 2.6-3.5 kg, purchased from Pizhou Oriental Breeding Co., Ltd.
The Male New Zealand white rabbits were randomly divided into 7 groups according to body weights, 6 rabbits/group. The animals in Groups 1 to 7 were administrated dropwise with a solvent/control/test article in both eyes in an administration volume of 50 μL/eye, once a day for 14 consecutive days, and the day of first administration was recorded as Day 1. The intraocular pressures of the animals were measured before administration, as well as at 1, 2, 4, 6, 8 and 10 h after administration, respectively. On Days 2 to 14, the intraocular pressures of animals in the K-115 administration group were measured at 1 h after daily administration; and intraocular pressures of the animals in the remaining groups were measured at 4 h after daily administration.

[2] = Toxicokinetic test: active compound in plasma after 14 days of eye drops; assay type: in vivo, New Zealand white rabbits; conditions: for Concentration of active compound in plasma: 8.0 mg/ml eye drops, after 14 days of consecutive administration
Description: The rate of production of active pharmaceutical ingredients in plasma and exposure amount of the active pharmaceutical ingredients were detected after 14 days.
Male New Zealand white rabbits, aged 3 to 6 months, weighted 2.0 to 5.0 kg, purchased from Pizhou Oriental Breeding Co., Ltd.
After 14 days of consecutive administration, blood samples were collected at 0 hours (before administration) and at 0.5, 1, 2, 4, 8 and 24 hours after administration in the group of compound of formula (I) (8.0 mg/ml) at 14-15 days. Approximately 0.8 mL of whole blood was collected from the ear artery or the hindlimb saphenous vein (or other suitable site) of animal subjected to the toxicokinetic test and placed in a labeled blood collection tube with dipotassium EDTA (K2EDTA) as an anticoagulant. Plasma was obtained by centrifugation at 3000 rpm and 2° C. to 8° C. for 10 min within 60 minutes after blood collection. All samples were quantitatively detected for the content of the administrated compound in the plasma of the experimental animal by a liquid chromatography-mass spectrometry coupling technology.

[3] = 2.0 mg/mL, Day 1, 2 h after administration
[4] = 2.0 mg/mL, Day 1, 4 h after administration
[5] = 2.0 mg/mL, Day 1, 6 h after administration
[6] = 2.0 mg/mL, Day 1, 8 h after administration
[7] = 2.0 mg/mL, Day 1, 10 h after administration
[8] = 2.0 mg/mL, Day 1, before administration
[9] = 4.0 mg/mL once a day, Day 2, 4 h after daily administration
[10] = 4.0 mg/mL once a day, Day 3, 4 h after daily administration
[11] = 4.0 mg/mL once a day, Day 4, 4 h after daily administration
[12] = 4.0 mg/mL once a day, Day 5, 4 h after daily administration
[13] = 4.0 mg/mL once a day, Day 6, 4 h after daily administration
[14] = 4.0 mg/mL once a day, Day 7, 4 h after daily administration
[15] = 4.0 mg/mL, Day 1, 1 h after administration
[16] = 4.0 mg/mL, Day 1, 2 h after administration
[17] = 4.0 mg/mL, Day 1, 4 h after administration
[18] = 4.0 mg/mL, Day 1, 6 h after administration
[19] = 4.0 mg/mL, Day 1, 8 h after administration
[20] = 4.0 mg/mL, Day 1, 10 h after administration
[21] = 4.0 mg/mL, Day 1, before administration
[22] = 8.0 mg/mL once a day, Day 2, 4 h after daily administration
[23] = 8.0 mg/mL once a day, Day 3, 4 h after daily administration
[24] = 8.0 mg/mL once a day, Day 4, 4 h after daily administration
[25] = 8.0 mg/mL once a day, Day 5, 4 h after daily administration
[26] = 8.0 mg/mL once a day, Day 6, 4 h after daily administration
[27] = 8.0 mg/mL once a day, Day 7, 4 h after daily administration
[28] = 8.0 mg/mL, Day 1, 1 h after administration
[29] = 8.0 mg/mL, Day 1, 2 h after administration
[30] = 8.0 mg/mL, Day 1, 4 h after administration
[31] = 8.0 mg/mL, Day 1, 6 h after administration
[32] = 8.0 mg/mL, Day 1, 8 h after administration
[33] = 8.0 mg/mL, Day 1, 10 h after administration
[34] = 8.0 mg/mL, Day 1, before administration

## Cc1ccc(C(=O)OCn2cc(C)c3c(S(=O)(=O)N4CC[C@H](N)C4)cccc3c2=O)c(C)c1 [Compound of formula (I)]
[1]; [3]
  Average intraocular pressure in both eyes: 7.47 mmHg
  Change in intraocular pressure: 3.5 mmHg
[1]; [4]
  Average intraocular pressure in both eyes: 7.47 mmHg
  Change in intraocular pressure: 3.84 mmHg
[1]; [5]
  Average intraocular pressure in both eyes: 7.25 mmHg
  Change in intraocular pressure: 4.69 mmHg
[1]; [6]
  Average intraocular pressure in both eyes: 8.44 mmHg
  Change in intraocular pressure: 4.53 mmHg
[1]; [7]
  Average intraocular pressure in both eyes: 9.67 mmHg
  Change in intraocular pressure: 4.75 mmHg
[1]; [8]
  Average intraocular pressure in both eyes: 9.67 mmHg
  Change in intraocular pressure: 0.22 mmHg
[1]; [9]
  Average intraocular pressure in both eyes: 6.53 mmHg
  Change in intraocular pressure: 4.55 mmHg
[1]; [10]
  Average intraocular pressure in both eyes: 5.58 mmHg
  Change in intraocular pressure: 4.81 mmHg
[1]; [11]
  Average intraocular pressure in both eyes: 5.53 mmHg
  Change in intraocular pressure: 5.08 mmHg
[1]; [12]
  Average intraocular pressure in both eyes: 6.61 mmHg
  Change in intraocular pressure: 4.36 mmHg
[1]; [13]
  Average intraocular pressure in both eyes: 5.47 mmHg
  Change in intraocular pressure: 3.84 mmHg
[1]; [14]
  Average intraocular pressure in both eyes: 5.56 mmHg
  Change in intraocular pressure: 4.5 mmHg
[1]; 4.0 mg/mL once a day, Day 8, 4 h after daily administration
  Change in intraocular pressure: 4.53 mmHg
[1]; 4.0 mg/mL once a day, Day 9, 4 h after daily administration
  Change in intraocular pressure: 3.97 mmHg
[1]; 4.0 mg/mL once a day, Day 10, 4 h after daily administration
  Change in intraocular pressure: 4.67 mmHg
[1]; 4.0 mg/mL once a day, Day 11, 4 h after daily administration
  Change in intraocular pressure: 3.86 mmHg
[1]; 4.0 mg/mL once a day, Day 12, 4 h after daily administration
  Change in intraocular pressure: 3.64 mmHg
[1]; 4.0 mg/mL once a day, Day 13, 4 h after daily administration
  Change in intraocular pressure: 4.36 mmHg
[1]; 4.0 mg/mL once a day, Day 14, 4 h after daily administration
  Change in intraocular pressure: 4.64 mmHg
[1]; [15]
  Average intraocular pressure in both eyes: 10.44 mmHg
  Change in intraocular pressure: −0.13 mmHg
[1]; [16]
  Average intraocular pressure in both eyes: 7.81 mmHg
  Change in intraocular pressure: 3.16 mmHg
[1]; [17]
  Average intraocular pressure in both eyes: 6.47 mmHg
  Change in intraocular pressure: 4.84 mmHg
[1]; [18]
  Average intraocular pressure in both eyes: 6.22 mmHg
  Change in intraocular pressure: 5.72 mmHg
[1]; [19]
  Average intraocular pressure in both eyes: 7.33 mmHg
  Change in intraocular pressure: 5.64 mmHg
[1]; [20]
  Average intraocular pressure in both eyes: 8.64 mmHg
  Change in intraocular pressure: 5.78 mmHg
[1]; [21]
  Average intraocular pressure in both eyes: 9.67 mmHg
  Change in intraocular pressure: 0.22 mmHg
[1]; [22]
  Average intraocular pressure in both eyes: 6.33 mmHg
  Change in intraocular pressure: 4.75 mmHg
[1]; [23]
  Average intraocular pressure in both eyes: 5.78 mmHg
  Change in intraocular pressure: 4.61 mmHg
[1]; [24]
  Average intraocular pressure in both eyes: 5.97 mmHg
  Change in intraocular pressure: 4.64 mmHg
[1]; [25]
  Average intraocular pressure in both eyes: 6.42 mmHg
  Change in intraocular pressure: 4.55 mmHg
[1]; [26]
  Average intraocular pressure in both eyes: 5.56 mmHg
  Change in intraocular pressure: 3.75 mmHg
[1]; [27]
  Average intraocular pressure in both eyes: 5.28 mmHg
  Change in intraocular pressure: 4.78 mmHg
[1]; 8.0 mg/mL once a day, Day 8, 4 h after daily administration
  Change in intraocular pressure: 5.59 mmHg
[1]; 8.0 mg/mL once a day, Day 9, 4 h after daily administration
  Change in intraocular pressure: 4.25 mmHg
[1]; 8.0 mg/mL once a day, Day 10, 4 h after daily administration
  Change in intraocular pressure: 4.19 mmHg
[1]; 8.0 mg/mL once a day, Day 11, 4 h after daily administration
  Change in intraocular pressure: 4.16 mmHg
[1]; 8.0 mg/mL once a day, Day 12, 4 h after daily administration
  Change in intraocular pressure: 3.97 mmHg
[1]; 8.0 mg/mL once a day, Day 13, 4 h after daily administration
  Change in intraocular pressure: 4.72 mmHg
[1]; 8.0 mg/mL once a day, Day 14, 4 h after daily administration
  Change in intraocular pressure: 4.03 mmHg
[1]; [28]
  Average intraocular pressure in both eyes: 7.69 mmHg
  Change in intraocular pressure: 2.62 mmHg
[1]; [29]
  Average intraocular pressure in both eyes: 6.39 mmHg
  Change in intraocular pressure: 4.58 mmHg
[1]; [30]
  Average intraocular pressure in both eyes: 7.06 mmHg
  Change in intraocular pressure: 4.25 mmHg
[1]; [31]
  Average intraocular pressure in both eyes: 7.11 mmHg
  Change in intraocular pressure: 4.83 mmHg
[1]; [32]
  Average intraocular pressure in both eyes: 7.22 mmHg
  Change in intraocular pressure: 5.75 mmHg
[1]; [33]
  Average intraocular pressure in both eyes: 7.97 mmHg
  Change in intraocular pressure: 6.45 mmHg
[1]; [34]
  Average intraocular pressure in both eyes: 10.17 mmHg
  Change in intraocular pressure: −0.28 mmHg
[1]; all tested doses (0.5 to 8.0 mg/mL), compared with K-115
  Efficacy of single administration (conclusion): better efficacy
[1]; dose of 0.5 mg/mL, compared with K-115
  Intraocular pressure reduction effect on 14 days of consecutive administration (conclusion): significant intraocular pressure reduction effect
[2]; Group 1, 0.00 h (before administration)
  Concentration of active compound in plasma: BQL
[2]; Group 1, 8.00 h
  Concentration of active compound in plasma: BQL
[2]; Group 1, 8.00 h, listed as compound of formula (I)
  Concentration of active compound in plasma: below the detection limit
[2]; Group 1, 24.0 h
  Concentration of active compound in plasma: BQL
[2]; Group 2, 0.00 h (before administration)
  Concentration of active compound in plasma: BQL
[2]; Group 2, 8.00 h
  Concentration of active compound in plasma: BQL
[2]; Group 2, 24.0 h
  Concentration of active compound in plasma: BQL
[2]; high dose of 8 mg/mL, from plasma metabolite concentration
  System safety (conclusion): high system safety
